The subject of one data set is Homo sapiens. The experiment in a line: Toxicity in HIV 1-infected human assessed as adverse events at 1800 mg, po bid for 8 days measured upto 14 days. It counts as organism-based. Particulars: in vivo.
Data set [1] has as its system Human immunodeficiency virus 1. The experiment in a line: Antiviral activity against HIV 1-infected human assessed as reduction in viral load at 1800 mg, po bid for 8 days measured upto 14 days. It is filed as functional, organism-based.
The nature of data set [2]: Lipophilicity, log P of compound in octanol-PBS mixture at pH 6.5 by HPLC-UV analysis. It is filed as physicochemical.
Data set [3] can be described thus: Permeability across human Caco2 cells at pH 6.5. It counts as ADME, cell-based. The settings on record: Caco-2, pH 6.5, read-out: permeability. (In general: Caco-2 monolayers are a common model of the intestinal barrier.)
Data set [4] in a line: Cmax in high fat fed healthy human at 800 mg, po administered as capsule with high fat meal. It counts as ADME, organism-based. Also on record: dose 800 mg, route oral. The settings on record: in vivo.
Data set [5] in a line: Tmax in high fat fed healthy human at 800 mg, po administered as capsule with high fat meal. It is filed as ADME, organism-based. The settings on record: in vivo.
The nature of data set [6]: AUC (infinity) in high fat fed healthy human at 800 mg, po administered as capsule with high fat meal. It counts as ADME, organism-based. Also on record: dose 800 mg, time infinity, route oral. The settings on record: plasma.
Data set [7] in a line: Half life in high fat fed healthy human at 800 mg, po administered as capsule with high fat meal. It is filed as ADME, organism-based. Particulars: in vivo.
Data set [8] in a line: Plasma concentration in high fat fed healthy human at 800 mg, po administered as capsule with high fat meal measured after 12 hrs. It counts as ADME, organism-based.
A short description of data set [9]: Dissociation constant, pKa of compound. It is filed as physicochemical.

The values that follow come from ChEMBL document CHEMBL2163239, “Inhibitors of human immunodeficiency virus type 1 (HIV-1) attachment 6. Preclinical and human pharmacokinetic profiling of BMS-663749, a phosphonooxymethyl prodrug of the HIV-1 attachment inhibitor 2-(4-benzoyl-1-piperazinyl)-1-(4,7-dimethoxy-1H-pyrrolo[2,3-c]pyridin-3-yl)-2-oxoethanone …” (J Med Chem, 2012).

Broadly, the logD is the decadic logarithm of the distribution of all forms, ionised or not, between an organic phase and buffer at a given pH. A word on the Cmax: it is the highest concentration seen after dosing. As usually defined, the Tmax is the time at which the peak concentration occurs. A word on the AUC(0-inf): it is total exposure, with the tail of the curve extrapolated. The half-life is the time needed for the level to fall by half in the phase considered. A higher half-life goes with slow decline. For orientation: pKa means the pH at which an ionisable group is half protonated. A higher pKa goes with a group that holds its proton tightly.

Molecules are shown by their SMILES. Activity calls are given as the source filed them.

Turning to `COc1ncc(OC)c2c(C(=O)C(=O)N3CCN(C(=O)c4ccccc4)CC3)c[nH]c12`, the Activity result with Homo sapiens is recorded as “Non-toxic”. The outcome in data set [1] was Active. The log distribution coefficient (logD) in data set [2] amounted to 1.5. Besides, the Papp in data set [3] is > 10 ×10⁻⁶ cm/s. In data set [4], this compound showed a Cmax of 4100 ng/mL. Further, the time to peak (Tmax) in data set [5] came out at 4 h. In data set [6], this compound gave an area under the curve AUC(0-inf) of 21200 ng·h/mL. The same compound had a half-life in data set [7] of 14 h. In data set [8], this compound came in with a concentration at 12 h of 175 ng/mL. This compound also yielded a pKa in data set [9] of 2.6.
